Test results from patent US11925669B2, “Chinese herbal medicine composition having a function of reducing uric acid” (Infinitus (China) Company Ltd., priority 2013, dated 2024).
Marks after values point to notes of the source that are not given here.

Tests used:
[1] = tested on: rat model of hyperuricemia; experiment: Reducing uric acid in the rat model of hyperuricemia (Oteracil potassium), 30 d intragastric administration; assay type: in vivo, SD Rat; settings: hyperuricemia model rats, X ± S
[2] = tested on: rat model of hyperuricemia; experiment: as above; assay type: in vivo, SD Rat; settings: for UA Reduction: day 30, calculated in comparison with Model control group
Text: Examine the effect of the Chinese herbal composition of the present invention for reducing uric acid in the rat model of hyperuricemia. Animals were assigned randomly into: Blank control group, Sample control group, Model control group, Test group, and Positive control group. Each group consisted of 10 animals. […] They were randomly assigned into 5 groups, each group consisting of 10 animals, the body weight distribution of each group of rats is similar. […] Blank control group was administrated with 17 ml/kg of distilled water intragastrically every afternoon, Sample control group was administrated with 17 ml/kg of test sample intragastrically every afternoon, Model control group was administrated with distilled water intragastrically in the afternoon, Positive control group was administrated with allopurinol intragastrically in the afternoon, and Test group was administrated with 17 ml/kg of test sample intragastrically in the afternoon. Additionally, for Model control group, Positive control group and Test group, each group was administrated with Oteracil potassium intragastrically every morning. The administration was conducted daily for 30 days. Prior to experiments, the rats were fastened for 12 h (but water was provided) and then about 1 ml of blood were taken from orbital veniplex with glass capillary tube. Sera were separated for measuring the pre-testing level of uric acid. On day 30, blood were taken in the same manner and sera were separated for measuring the serum levels of uric acid, creatinine, and urea nitrogen. Modeling principle: Rats were intragastrically administrated with Oteracil potassium, a chemical inhibitor of uricase, to inhibit the activity of uricase in the body of rats, rendering uric acid in the body of rats unable to breakdown, causing the accumulation of uric acid produced in the serum, so as to produce a rat model of hyperuricemia. Model control group: 17 ml/kg*d of distilled water was administrated intragastrically, once daily for 30 days; Test sample prevention group: 17 ml/kg*d of test sample was administrated intragastrically, once daily for 30 days; Positive control group: 17 ml/kg*d of positive control allopurinolis administrated intragastrically, once daily for 30 days. Observation of Body weight: The growing condition of animals were observed by weighing prior to administration and on Day 30 of administration. Blood were taken prior to administration and on Day 30 of administration to measure uric acid, creatinine, urea nitrogen, to calculate the changing rate of uric acid level in serum. The changing rate of uric acid in serum=(uric acid value in serum after experiment-uric acid value in serum prior to experiment)/uric acid value in serum prior to […]100% ANOVA (analysis of variance) was used. Firstly, homogeneous variance test was carried out, and F values were calculated.

[3] = hyperuricemia model rats, intragastric once daily, day 30, X ± S

- BUN level in the sera of rats upon 30 d administration [2, 3]: 5.53 ± 0.79 mM
- General status observation (appearance, activities, excrement characters) ([2]; in comparison with Model control group, observed daily): no significant difference
SMILES: Oc1ncnc2[nH]ncc12 [allopurinol]
- 10 d weight ([1]; body weight after 10 days): 185.7 ± 15.9 g
- 20 d weight ([1]; body weight after 20 days): 224.2 ± 21.8 g
- 30 d weight ([2]; hyperuricemia model rats, body weight after 30 days, X ± S): 254.4 ± 23.1 g
- UA Reduction ([2]; hyperuricemia model rats): 53.4%
- UA Reduction ([2]; hyperuricemia model rats, listed as Positive control): ↓53.4%
- UA level in the sera of rats upon 30 d administration [2, 3]: 63.20 ± 17.19** μmol/L
- Blood/serum UA level change in words ([2]; in comparison with Model control group, 30 d oral administration): significant reduction
